The source of these data is publication PMC12615753, “Glutathione as a taste modulator: molecular mechanisms of interaction with umami and sweet taste receptors” (Food Chemistry: Molecular Sciences, 2025).

Bounds are passed on as bounds.

In one assay the target is T1, hTAS1R1 D192E/rTAS1R3 (UniProt Q7RTX1+Q923K1, D192E).
T1 construct: The cDNA coding region of rTAS1R3 was synthesized with optimized-codon usage for human expression; expressed in transfected cells; host or cells: HEK293T/17
In words: cell-based. Further details: species or system human, rat. An excerpt:
(§1) Chimeric Gα proteins, such as Gα16Gust44, Gα16Gi3 or Gα15i2, are widely used in the functional expression of TAS1R receptors ([Backes et al., 2015]; [Suess et al., 2015]; [Toda et al., 2021], [Toda et al., 2013], [Toda et al., 2018]; [Zhang et al., 2008]). Chimeric Gα15i2 (([Toda et al., 2013]), Supplementary data) was generated by replacing the last five residues of the C-terminal tail of rat Gα15i2 (EINLL) (UniProt number G3V6N8; https://www.uniprot.org/uniprot/) with the counterpart sequence from human GNAI2 (DCGLF) (UniProt number P04899-1) and cloning into the pcDNA3.1/Hygro vector (Invitrogen, Thermo Fisher Scientific, Illkirch, France) between the HindIII and NotI restriction sites, resulting in the plasmid pcDNA3.1-Gα15i2. Chimeric Gα16Gust44 construct have already been reported ([Raliou et al., 2011]). Briefly, Gα16Gust44 was generated by replacing the C-terminal of Gα16 with the C-terminal 44 residues of gustducin. As previously described, hTAS1R1 was amplified from human fungiform papillae cDNA and cloned and inserted into pcDNA3 (Invitrogen), generating pcDNA3-TAS1R1-WT (wild-type) ([Raliou et al., 2011]). […]

Another assay has as its system TAS1R1/TAS1R3. Conditions: ref Broadhead et al., 2011; Servant & Frerot, 2022; cited from earlier work.
Another assay addresses T2, hTAS1R1/hTAS1R3(r1–575) (Homo sapiens, UniProt Q7RTX1).
T2 construct: UniProtKB number Q7RTX1–1); expressed in transfected cells; host or cells: HEK293T/17 (inferred from the general method)
The experiment in a line: Calcium assay, chimeric TAS1R3 co-expressed with hTAS1R1. Conditions: data not shown. Type of assay: cell-based, rat.
Excerpt: as §1

The target of assay [1] is T3, hTAS1R1/hTAS1R3(r570–858) (Homo sapiens, UniProt Q7RTX1).
T3 construct: UniProtKB number Q7RTX1–1); expressed in transfected cells; host or cells: HEK293T/17 (inferred from the general method)
The assay is described as above. It counts as cell-based, rat. Conditions: data not shown.
Excerpt: as §1

The EC50 is the concentration that produces a half-maximal response.

T1 sequence (Q7RTX1 21-841 D192E): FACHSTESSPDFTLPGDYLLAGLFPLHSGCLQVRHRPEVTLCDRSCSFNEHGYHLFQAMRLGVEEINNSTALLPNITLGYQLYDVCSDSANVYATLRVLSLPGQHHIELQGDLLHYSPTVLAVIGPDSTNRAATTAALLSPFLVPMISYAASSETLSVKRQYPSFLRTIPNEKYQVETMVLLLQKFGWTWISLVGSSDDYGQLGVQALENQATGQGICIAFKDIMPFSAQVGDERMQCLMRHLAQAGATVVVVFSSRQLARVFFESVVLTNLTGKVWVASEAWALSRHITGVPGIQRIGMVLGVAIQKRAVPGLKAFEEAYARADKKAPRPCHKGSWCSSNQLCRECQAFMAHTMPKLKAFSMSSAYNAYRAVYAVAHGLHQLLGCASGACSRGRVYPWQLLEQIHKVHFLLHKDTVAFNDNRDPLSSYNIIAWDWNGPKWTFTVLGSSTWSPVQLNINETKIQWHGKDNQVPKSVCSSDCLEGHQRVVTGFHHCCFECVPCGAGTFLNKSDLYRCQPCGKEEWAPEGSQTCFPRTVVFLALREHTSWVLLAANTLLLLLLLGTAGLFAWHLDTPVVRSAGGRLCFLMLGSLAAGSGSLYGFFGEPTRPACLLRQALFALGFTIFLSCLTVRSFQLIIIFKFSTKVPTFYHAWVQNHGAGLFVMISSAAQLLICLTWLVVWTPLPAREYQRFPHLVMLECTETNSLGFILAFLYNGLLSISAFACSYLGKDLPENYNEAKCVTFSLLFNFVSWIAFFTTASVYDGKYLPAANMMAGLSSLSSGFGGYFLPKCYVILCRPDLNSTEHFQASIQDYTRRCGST
T1 sequence (Q923K1 21-858): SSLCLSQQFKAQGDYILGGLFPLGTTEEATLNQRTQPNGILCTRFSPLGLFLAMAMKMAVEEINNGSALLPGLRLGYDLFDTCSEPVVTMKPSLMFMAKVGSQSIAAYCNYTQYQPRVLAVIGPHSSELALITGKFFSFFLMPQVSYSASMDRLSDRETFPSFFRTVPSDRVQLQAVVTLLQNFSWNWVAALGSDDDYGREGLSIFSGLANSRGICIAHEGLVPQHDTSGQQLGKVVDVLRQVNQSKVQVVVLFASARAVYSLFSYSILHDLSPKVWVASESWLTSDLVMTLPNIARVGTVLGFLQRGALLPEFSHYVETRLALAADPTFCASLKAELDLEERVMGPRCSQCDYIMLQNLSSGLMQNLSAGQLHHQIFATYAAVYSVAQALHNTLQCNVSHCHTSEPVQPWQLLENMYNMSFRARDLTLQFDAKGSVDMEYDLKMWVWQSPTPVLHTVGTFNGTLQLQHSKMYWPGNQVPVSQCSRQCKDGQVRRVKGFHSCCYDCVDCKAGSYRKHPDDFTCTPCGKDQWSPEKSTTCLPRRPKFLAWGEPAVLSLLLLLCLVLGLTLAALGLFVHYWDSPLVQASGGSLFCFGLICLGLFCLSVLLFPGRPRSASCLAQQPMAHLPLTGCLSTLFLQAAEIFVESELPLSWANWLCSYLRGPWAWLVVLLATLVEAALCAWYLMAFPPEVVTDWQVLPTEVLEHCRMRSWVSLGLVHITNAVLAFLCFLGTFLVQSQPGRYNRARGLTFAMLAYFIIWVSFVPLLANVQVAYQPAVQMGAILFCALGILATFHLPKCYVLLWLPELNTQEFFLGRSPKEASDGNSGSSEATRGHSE
T3 sequence (Q7RTX1 21-841): as the sequence (Q7RTX1 21-841 D192E) above, with E172D counted along it
T2 sequence (Q7RTX1 21-841): as the sequence (Q7RTX1 21-841 D192E) above, with E172D counted along it

As for `N[C@@H](CCC(=O)N[C@@H](CS)C(=O)NCC(=O)O)C(=O)O` [GSH, γ-L-glutamyl-L-cysteinyl-glycine], the 50% effective concentration (EC50) at hTAS1R1 D192E/rTAS1R3 is more than 30 mM; with TAS1R1/TAS1R3 it was 11.3 mM.

Consider `N[C@@H](CCC(=O)O)C(=O)O` [L-Glu, L-glutamic acid, reference compound], for which the “response of the receptor” value (on hTAS1R1/hTAS1R3(r1–575); in assay [1]) was “did not respond” in each case.
